Measured values reported in patent US7705030B2, “Amino-5-(5-membered)hetero-arylimidazolone compounds and the use thereof for β-secretase modulation” (Wyeth LLC, priority 2005, dated 2010).

Molecular target: human BACE1 (Homo sapiens, UniProt P56817)
Assay: Fluorescent kinetic assay: Evaluation of BACE-1 Binding Affinity of Test Compounds
Assay type: biochemical
Details: 10 nM enzyme, 25 μM substrate WABC-6, 50 mM Na-Acetate pH 4.5, room temperature
Method: Evaluation of BACE-1 Binding Affinity of Test Compounds
Fluorescent Kinetic Assays
Final Assay Conditions: 10 nM human BACE1 (or 10 nM Murine BACE1, 1.5 nM human BACE2), 25 μM substrate (WABC-6, MW 1549.6, from AnaSpec), Buffer: 50 mM Na-Acetate, pH 4.5, 0.05% CHAPS, 25% PBS, room temperature. Na-Acetate was from Aldrich, Cat.# 24, 124-5, CHAPS was from Research Organics, Cat. # 1304C 1×, PBS was from Mediatech (Cellgro), Cat# 21-031-CV, peptide substrate Abz[…]pa was from AnaSpec, Peptide Name: WABC-6 Determination of stock substrate (Abz[…]pa) concentration: ˜25 mM stock solution is made in DMSO using the peptide weight and MW, and diluted to ˜25 μM (1:1000) in 1×PBS. Concentration is determined by absorbance at 354 nm using an extinction coefficient ε of 18172 M^−1 cm^−1, the concentration of stock substrate is corrected, and the substrate stock stored in small aliquots in −80° C. [Substrate Stock]=ABS^354 nm*10^6/18172 (in […]) The extinction coefficient ε^354 nm was adapted from TACE peptide substrate, which had the same quencher-fluorophore pair.
Determination of Stock Enzyme Concentration: the stock concentration of each enzyme is determined by absorbance at 280 nm using an ε of 64150 M^−1 cm^−1 for hBACE1 and MuBACE1, 62870 M^−1 cm^−1 for hBACE2 in 6 M Guanidinium Hydrochloride (from Research Organics, Cat. # 5134G-2), pH ˜6. The extinction coefficient ε^280 nm for each enzyme was calculated based on known amino acid composition and published extinction coefficients for Trp ([…]) and Tyr ([…]) residues (Anal. Biochem. 182, 319-326).
Dilution and mixing steps: total reaction volume: 100 μL
2× inhibitor dilutions in buffer A(66.7 mM Na-Acetate, pH 4.5, 0.0667% CHAPS) were prepared,
4× enzyme dilution in buffer A(66.7 mM Na-Acetate, pH 4.5, 0.0667% CHAPS) were prepared,
100 μM substrate dilution in 1×PBS was prepared, and
50 μL 2× Inhibitor, 25 μL 100 μM substrate are added to each well of 96-well plate (from DYNEX Technologies, VWR #: 11311-046), immediately followed by 25 μL 4× enzyme (added to the inhibitor and substrate mix), and the fluorescence readings are initiated.
Fluorescence Readings: Readings at λex 320 nm and λem 420 nm are taken every 40 sec for 30 min at room temperature and the linear slope for substrate cleavage rate (vi) determined.
Testing at least 10 different inhibitor concentrations is preferred.

Sequence of human BACE1 (P56817 46-501): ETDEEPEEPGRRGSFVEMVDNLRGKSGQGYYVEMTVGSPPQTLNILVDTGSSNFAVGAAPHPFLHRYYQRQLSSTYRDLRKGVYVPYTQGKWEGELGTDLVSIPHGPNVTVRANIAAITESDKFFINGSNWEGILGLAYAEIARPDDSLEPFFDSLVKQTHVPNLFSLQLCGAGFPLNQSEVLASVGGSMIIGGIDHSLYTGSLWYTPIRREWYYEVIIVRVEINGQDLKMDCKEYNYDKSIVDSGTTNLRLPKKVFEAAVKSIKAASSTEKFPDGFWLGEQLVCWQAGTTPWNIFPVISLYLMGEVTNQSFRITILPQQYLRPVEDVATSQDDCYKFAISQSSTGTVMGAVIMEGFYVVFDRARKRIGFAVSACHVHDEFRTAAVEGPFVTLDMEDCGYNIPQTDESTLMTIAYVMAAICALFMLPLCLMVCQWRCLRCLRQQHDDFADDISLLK

For `CCC(=O)c1cc([C@]2(c3cccc(-c4cc(F)cnc4F)c3)N=C(N)N(C)C2=O)cn1CCF` [242 A], the IC50 was 10 to 100 nM.
In the case of `CCC(=O)c1cc([C@@]2(c3cccc(-c4cc(F)cnc4F)c3)N=C(N)N(C)C2=O)cn1CCF` [242 B], the IC50 is reported as greater than 1000 nM.
`CCn1cc([C@]2(c3cccc(-c4cccnc4F)c3)N=C(N)N(C)C2=O)cc1C(=O)C1CC1` [243 A] was tested, and the IC50 was 10 to 100 nM.
`CCn1cc([C@@]2(c3cccc(-c4cccnc4F)c3)N=C(N)N(C)C2=O)cc1C(=O)C1CC1` [243 B] was tested, and the IC50 was greater than 1000 nM.
For `CCC(=O)c1cc([C@]2(c3cccc(-c4cccnc4F)c3)N=C(N)N(C)C2=O)cs1` [244 A], the IC50 was 10 to 100 nM.
Compound `CCC(=O)c1cc([C@@]2(c3cccc(-c4cccnc4F)c3)N=C(N)N(C)C2=O)cs1` [244 B] has an IC50 of 110 to 1000 nM.
`CC(=O)c1cc([C@]2(c3ccccc3)N=C(N)N(C)C2=O)cn1C` [249 A] showed an IC50 greater than 1000 nM.
Work on `CC(=O)c1cc([C@@]2(c3ccccc3)N=C(N)N(C)C2=O)cn1C` [249 B] yielded an IC50 greater than 1000 nM.
Compound `CCC(=O)c1cc([C@]2(c3cccc(-c4cccnc4F)c3)N=C(N)N(C)C2=O)cn1CCCCF` [250 A] has an IC50 of 10 to 100 nM.
For `CCC(=O)c1cc([C@@]2(c3cccc(-c4cccnc4F)c3)N=C(N)N(C)C2=O)cn1CCCCF` [250 B], the IC50 was greater than 1000 nM.
With `CCC(=O)c1cc([C@]2(c3cccc(-c4cccnc4F)c3)N=C(N)N(C)C2=O)cn1CC1CC1` [251 A] the IC50 was 10 to 100 nM.
For `CCC(=O)c1cc([C@@]2(c3cccc(-c4cccnc4F)c3)N=C(N)N(C)C2=O)cn1CC1CC1` [251 B], the IC50 was greater than 1000 nM.
Work on `CCC(=O)c1cc([C@]2(c3cccc(-c4cccnc4F)c3)N=C(N)N(C)C2=O)cn1CCCC(F)(F)F` [252 A] yielded an IC50 of 10 to 100 nM.
In the case of `CCC(=O)c1cc([C@@]2(c3cccc(-c4cccnc4F)c3)N=C(N)N(C)C2=O)cn1CCCC(F)(F)F` [252 B], the IC50 is reported as greater than 1000 nM.
In the case of `CCC(=O)c1cc([C@]2(c3cccc(-c4cccnc4F)c3)N=C(N)N(C)C2=O)cn1CC(F)F` [253 A], the IC50 is reported as 10 to 100 nM.
`CCC(=O)c1cc([C@@]2(c3cccc(-c4cccnc4F)c3)N=C(N)N(C)C2=O)cn1CC(F)F` [253 B] was tested, and the IC50 was greater than 1000 nM.
`CCCn1cc([C@]2(c3cccc(-c4cccnc4F)c3)N=C(N)N(C)C2=O)cc1C(=O)CC` [254 A] showed an IC50 of 10 to 100 nM.
Compound `CCCn1cc([C@@]2(c3cccc(-c4cccnc4F)c3)N=C(N)N(C)C2=O)cc1C(=O)CC` [254 B] has an IC50 greater than 1000 nM.
In the case of `CCC(=O)c1cc([C@]2(c3cccc(-c4cccnc4F)c3)N=C(N)N(C)C2=O)cn1CCCF` [255 A], the IC50 is reported as 10 to 100 nM.
`CCC(=O)c1cc([C@@]2(c3cccc(-c4cccnc4F)c3)N=C(N)N(C)C2=O)cn1CCCF` [255 B] was tested, and the IC50 was greater than 1000 nM.
For `CCC(=O)c1cc([C@]2(c3cccc(-c4cccnc4F)c3)N=C(N)N(C)C2=O)cn1CCF` [256 A], the IC50 was 10 to 100 nM.
In the case of `CCC(=O)c1cc([C@@]2(c3cccc(-c4cccnc4F)c3)N=C(N)N(C)C2=O)cn1CCF` [256 B], the IC50 is reported as greater than 1000 nM.
`COC(=O)c1cc([C@]2(c3cccc(-c4cccnc4F)c3)N=C(N)N(C)C2=O)cn1CCF` [257 A] was tested, and the IC50 was 10 to 100 nM.
With `COC(=O)c1cc([C@@]2(c3cccc(-c4cccnc4F)c3)N=C(N)N(C)C2=O)cn1CCF` [257 B] the IC50 was 110 to 1000 nM.
`COC(=O)c1cc([C@]2(c3ccc(F)c(-c4cncnc4)c3)N=C(N)N(C)C2=O)cn1CC(F)(F)F` [258 A] gave an IC50 of 10 to 100 nM.
`COC(=O)c1cc([C@@]2(c3ccc(F)c(-c4cncnc4)c3)N=C(N)N(C)C2=O)cn1CC(F)(F)F` [258 B] showed an IC50 greater than 1000 nM.
`CN1C(=O)C(c2cccc(-c3cncnc3)c2)(c2cnn(C)c2)N=C1N` (stereo not drawn) [Example 1, 2-Amino-3-methyl-5-(1-methyl-1H-pyrazol-4-yl)-5-(3-pyrimidin-5-ylphenyl)-3,5-dihydro-4-imidazol-4-one] was tested, and the IC50 was 110 to 1000 nM.
`COc1ncccc1-c1cc(C2(c3ccsc3)N=C(N)N(C)C2=O)ccc1F` (stereo not drawn) [Example 38] showed an IC50 of 110 to 1000 nM.
`CN1C(=O)C(c2ccsc2)(c2ccc(F)c(-c3cccnc3F)c2)N=C1N` (stereo not drawn) [Example 39] showed an IC50 of 10 to 100 nM.
`CN1C(=O)C(c2ccsc2)(c2ccc(F)c(-c3cccnc3)c2)N=C1N` (stereo not drawn) [Example 40] gave an IC50 of 10 to 100 nM.
With `CCn1cc(C2(c3cncnc3)N=C(N)N(C)C2=O)cn1` (stereo not drawn) [Example 42, 2-Amino-5-(1-ethyl-1H-pyrazol-4-yl)-3-methyl-5-(3-pyrimidin-5-yl)-3,5-dihydro-4H-imidazol-4-one] the IC50 was 10 to 100 nM.
`CCn1cc(C2(c3cccc(-c4cccnc4F)c3)N=C(N)N(C)C2=O)cn1` (stereo not drawn) [Example 43, 2-Amino-5-(1-ethyl-1H-pyrazol-4-yl)-5-[3-(2-fluoro-pyridin-3-yl)-phenyl]-3-methyl-3,5-dihydro-imidazol-4-one] showed an IC50 of 10 to 100 nM.
`CCn1cc([C@@]2(c3cccc(-c4cccnc4F)c3)N=C(N)N(C)C2=O)cn1` [Example 44A, (5R)-2-Amino-5-(1-ethyl-1H-pyrazol-4-yl)-5-[3-(2-fluoropyridin-3-yl)phenyl]-3-methyl-3,5-dihydro-4H-imidazol-4-one] gave an IC50 greater than 1000 nM.
`CCn1cc([C@]2(c3cccc(-c4cccnc4F)c3)N=C(N)N(C)C2=O)cn1` [Example 44B, (5S)-2-Amino-5-(1-ethyl-1H-pyrazol-4-yl)-5-[3-(2-fluoropyridin-3-yl)phenyl]-3-methyl-3,5-dihydro-4H-imidazol-4-one] gave an IC50 of 10 to 100 nM.
`CCn1cc(C2(c3cccc(-c4cncc(F)c4)c3)N=C(N)N(C)C2=O)cn1` (stereo not drawn) [Example 45, 2-Amino-5-(1-ethyl-1H-pyrazol-4-yl)-5-[3-(5-fluoro-pyridin-3-yl)-phenyl]-3-methyl-3,5-dihydro-imidazol-4-one] gave an IC50 of 10 to 100 nM.
In the case of `CCn1cc(C2(c3cccc(-c4cncc(Cl)c4)c3)N=C(N)N(C)C2=O)cn1` (stereo not drawn) [Example 46, 2-Amino-5-[3-(5-chloropyridin-3-yl)phenyl]-5-(1-ethyl-1H-pyrazol-4-yl)-3-methyl-3,5-dihydro-imidazol-4-one], the IC50 is reported as 10 to 100 nM.
In the case of `CC(C)n1cc(C#Cc2ccc(F)c(Br)c2)cn1` [Example 94, 4-(3-bromo-4-fluorophenylethynyl)-1-isopropyl-1H-pyrazole], the IC50 is reported as 10 to 100 nM.
`CCCCc1ccc(C2(c3ccccc3)N=C(N)N(C)C2=O)s1` (stereo not drawn) [Example 109, 2-Amino-5-(5-butylthien-2-yl)-3-methyl-5-phenyl-3,5-dihydro-4H-imidazol-4-one] was tested, and the IC50 was greater than 1000 nM.
`COc1ccc(C2(c3cc(-c4ccc(F)cc4)cs3)N=C(N)N(C)C2=O)cc1C` (stereo not drawn) [Example 111, 2-Amino-5-[4-(4-fluorophenyl)thien-2-yl]-5-(4-methoxy-3-methylphenyl)-3-methyl-3,5-dihydro-4H-imidazol-4-one] gave an IC50 of 110 to 1000 nM.
`CCC(=O)c1cc(C2(c3cccc(Br)c3)N=C(N)N(C)C2=O)cn1CCF` (stereo not drawn) [Example 150, 2-Amino-5-[3-bromophenyl]-5-[1-(2-fluoroethyl)-5-propionyl-1H-pyrrol-3-yl)-3-methyl-3,5-dihydro-4H-imidazol-4-one] was tested, and the IC50 was 110 to 1000 nM.
For `CCC(=O)c1cc(C2(c3cccc(-c4cc(F)cnc4F)c3)N=C(N)N(C)C2=O)cn1CCF` (stereo not drawn) [Example 151, 2-Amino-5-[3-(2,5-difluoropyridin-3-yl)phenyl]-5-[1-(2-fluoro-ethyl)-5-propionyl-1H-pyrrol-3-yl)-3-methyl-3,5-dihydro-4H-imidazol-4-one], the IC50 was 10 to 100 nM.
For `CCC(=O)c1cc(C2(c3cccc(-c4cccnc4F)c3)N=C(N)N(C)C2=O)cn1CCC(C)C` (stereo not drawn) [Example 153], the IC50 was 10 to 100 nM.
Compound `CCC(=O)c1cc(C2(c3cccc(-c4cccnc4F)c3)N=C(N)N(C)C2=O)c[nH]1` (stereo not drawn) [Example 154] has an IC50 of 10 to 100 nM.
Compound `CCC(=O)c1cc([C@@]2(c3ccc(F)c(-c4cccnc4F)c3)N=C(N)N(C)C2=O)cn1CC` [Example 183B, (5R)-2-Amino-5-(1-ethyl-5-propionyl-1H-pyrrol-3-yl)-5-[4-fluoro-3-(2-fluoropyridin-3-yl)phenyl]-3-methyl-3,5-dihydro-4H-imidazol-4-one] has an IC50 greater than 1000 nM.
In the case of `COC(=O)c1cc([C@@]2(c3ccc(F)c(-c4cccnc4F)c3)N=C(N)N(C)C2=O)cn1CCF` [Example 184B, Methyl 4-{(4R)-2-amino-4-[4-fluoro-3-(2-fluoropyridin-3-yl)phenyl]-1-methyl-5-oxo-4,5-dihydro-1H-imidazol-4-yl}-1-(2-fluoroethyl)-1H-pyrrole-2-carboxylate], the IC50 is reported as 110 to 1000 nM.
